# Measurements published in patent US11753432B2, “Compound with analgesic effect for use in prevention and treatment of pain” (Academia Sinica, priority 2017, dated 2023).
# How the values were obtained:
# [1] = Tolerated dose / safety range in the ICS mouse model; type: in vivo
# Experimental: Female C57BL/6JNarl mice aged 8-12 weeks were purchased from the National Laboratory Animal Center (Taipei, Taiwan). […] Mechanical hyperalgesia was assayed by testing the withdrawal response of mouse hindpaws to 0.2-mN von Frey filament stimulation.
# [2] = test system: mouse model of fibromyalgia (chronic widespread pain induced by intermittent cold stress); assay: Intermittent cold stress (ICS) mouse model of fibromyalgia; mechanical hyperalgesia, hindpaw withdrawal to 0.2-mN von Frey filament; type: in vivo, mice (female C57BL/6JNarl); details: for tolerance / therapeutic effect on repeated treatment: 1 mg/kg p.o. once a day for 4 days from day 5 after ICS
# Experimental: Female C57BL/6JNarl mice aged 8-12 weeks were purchased from the National Laboratory Animal Center (Taipei, Taiwan). The fibromyalgia model was developed by Ueda's group, in which mice were treated with intermittent cold stress for 2 days (Nishiyori, M.; Ueda, H. Prolonged gabapentin analgesia in an experimental mouse model of fibromyalgia. Mol. Pain 2008, 4, 52). Mice treated with intermittent cold stress developed long-lasting (>2 weeks) mechanical and thermal hyperalgesia. Analgesic effects of compound I-a1 (JMF3737) via i.p. (in 0.5% HPβCD) or p.o. (in 1% HPβCD) routes and compound I-d1 (JMF4413) via i.p. (in 0.5% HPβCD) were tested in these mice 5 days after intermittent cold stress. Mechanical hyperalgesia was assayed by testing the withdrawal response of mouse hindpaws to 0.2-mN von Frey filament stimulation.
# [3] = biological target: T1, NK1R receptor in muscle nociceptors (Mus musculus, UniProt P30548); assay: Whole-cell patch clamp recording on muscle nociceptors (outward current); type: cell-based
# T1 construct: whole-cell patch clamp recording on muscle nociceptors; endogenous in cells; host or cells: muscle nociceptors (primary sensory neurons; preparation not described)
# From the text: The JMF3737-induced outward current (IJMF3737) can cause nociceptor hyperpolarization and thus counteract the acid-induced depolarization in muscle nociceptors and thus inhibit pain associated with tissue acidosis.
# Solubility = type: physicochemical
# Bioavailability = details: in vivo; read-out: bioavailability (F)
# [4] = p.o. (oral gavage), ICS mouse model
# T1 sequence (P30548 whole entry): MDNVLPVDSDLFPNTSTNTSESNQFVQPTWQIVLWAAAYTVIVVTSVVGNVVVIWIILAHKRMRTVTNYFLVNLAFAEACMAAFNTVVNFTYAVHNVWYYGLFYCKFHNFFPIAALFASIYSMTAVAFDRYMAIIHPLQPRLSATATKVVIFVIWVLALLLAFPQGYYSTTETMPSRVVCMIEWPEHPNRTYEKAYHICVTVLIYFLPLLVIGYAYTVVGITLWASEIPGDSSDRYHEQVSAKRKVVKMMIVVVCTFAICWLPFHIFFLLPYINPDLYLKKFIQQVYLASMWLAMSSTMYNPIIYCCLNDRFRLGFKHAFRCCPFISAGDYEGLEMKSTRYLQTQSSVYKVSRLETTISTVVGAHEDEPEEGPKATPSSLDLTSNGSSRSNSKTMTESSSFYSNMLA
smiles,measurement,setting,value
"CCCCNC(=O)OC[C@H]1O[C@@H](n2cnc3c(NCc4ccc(O)cc4)ncnc32)C(O)C1O (stereo partly drawn) [Compound 8, 5′-O-(n-Butylaminocarbonyl)-N^6-(4-hydroxybenzyl)adenosine]",melting point,,187.4 to 189 °C
"O=C(O)CNC(=O)OC[C@H]1O[C@@H](n2cnc3c(NCc4ccc(O)cc4)ncnc32)C(O)C1O (stereo partly drawn) [I-a1, 5′-O-(Glycine-N-carbonyl)-N^6-(4-hydroxybenzyl)adenosine]",dose without causing appreciable detrimental effect,[1]; i.p. and p.o.,at least 64 mg/kg
same,pain sensitivity to von Frey filament stimulation after repeated treatment,"[2]; 1 mg/kg oral once a day for 4 days, since day 8, n=4",decreased pain sensitivity
same,acute analgesic effect during repeated treatment,"[2]; 1 mg/kg oral once a day, day 5 to day 8, n=4",shows acute analgesic effect
same,tolerance / therapeutic effect on repeated treatment,[2],no tolerance but therapeutic effect
same,tolerance / therapeutic effect on repeated treatment,[2]; listed as JMF3737,does not cause tolerance
same,analgesic effect (in words),[2]; 2 mg (4 μmol)/kg via oral route,appreciable analgesic effect
same,analgesic effect (in words),[2]; ICS mouse model,superior analgesic effect to that of T1-11
same,"dose-dependent analgesic effect, effective dose starting from","[2]; i.p., ICS mouse model",1 mg/kg
same,"dose-dependent analgesic effect, effective dose starting from",[2]; [4],1 mg/kg
same,analgesic effect compared with T1-11,[2]; via oral route,better analgesic effect over T1-11
same,induced outward current (IJMF3737) inhibited by NK1R antagonist,"[3]; JMF3737 10 μM with RP67580 10 μM, reversible inhibition",15 pA
same,induced outward current (IJMF3737),"[3]; JMF3737 10 μM, muscle nociceptors",40 pA
"O=C(O)CNC(=O)NC[C@H]1O[C@@H](n2cnc3c(NCc4ccc(O)cc4)ncnc32)C(O)C1O (stereo partly drawn) [I-d1, 5′-Deoxy-5′-(glycine-N-amido)-N^6-(4-hydroxybenzyl)adenosine]",dose without causing appreciable detrimental effect,[1]; i.p.,64 mg/kg
same,analgesic effect (in words),"[2]; 64 mg/kg via i.p. route, n=2",good analgesic effect
same,analgesic effect (in words),[2]; ICS mouse model,excellent analgesic effect
"OC[C@H]1O[C@@H](n2cnc3c(NCc4ccc(O)cc4)ncnc32)[C@H](O)[C@@H]1O [T1-11, N^6-(4-hydroxybenzyl)adenosine, reference compound]",solubility in dimethylsulfoxide (DMSO),Solubility,good solubility
same,bioavailability,Bioavailability,~5%
same,analgesic effect (in words),[2]; ICS mouse model,excellent analgesic effect
same,"dose-dependent analgesic effect, effective dose starting from","[2]; i.p., ICS mouse model",0.03 mg/kg
same,"dose-dependent analgesic effect, effective dose starting from",[2]; [4],8 mg/kg
